Source: patent publication US20220175675A1, “ENCAPSULATING MOLECULES IN FAT GLOBULES” (The Regents of the University of California, priority 2019, published 2022)

How the values were obtained:
[1] = Loading of vitamin D3 in ovine milk fat globules; type: physicochemical; settings: for EE %, 1% v/v ethanol / EE %, 10% v/v ethanol / LY, 1% v/v ethanol / LY, 10% v/v ethanol: Ovine MFGs, 30 minutes
Experimental: (§1) Raw milk was diluted with Milli-Q water at 9:1 water to milk. Cream was separated from diluted milk via centrifugation at 3,000×g for 5 min. Cream was collected and reconstituted in water at 4% w/v concentration. The mixture was then further centrifuged at 3,000×g for 5 min. The cream was then collected and reconstituted to desired weight/volume in water (20% w/v in water).
(§2) Encapsulation of VD3 was achieved by incubation of compound's ethanolic solution with 20% w/v cream suspended in water. Once well mixed by gently inverting the tube, the contents were allowed to incubate in the dark. […] Significant values were reported with a 95% confidence interval, i.e. p<0.05.
(§3) At the end of the incubation period with VD3, cream was separated by centrifuging the suspension at 3,000×g for 5 min Cream was skimmed off the top with particular care not to include any of the aqueous phase. Methanol was added at 50 mg/mL and vortexed vigorously for 1 min. The mixture was then centrifuged at 3,000×g for 30 min. Liquid phase was collected and absorbance was measured at 264 nm. Absorbance blank was prepared fresh during every encapsulation run by introducing ethanol to cream suspended in water. Absorbance of the blank was subtracted from test samples to remove the absorbance of solvent, lipids, and other MFGs components. All experiments were conducted in triplicates.
(§4) Fat content in cream was measured to calculate the loading yield. The fat was isolated using the same set of preparation steps detailed in Example 13 with the addition of the last centrifugation step to recover cream after at the end of the loading process. The total fat content was determined using a modified Folch method (Folch, Lees, & Sloane-Stanley, 1957) where an additional step of washing the chloroform/water interface with 1:1 water/methanol solution was added to remove milk serum components. The loading yield of VD3 in milk fat was calculated as follows: […]
(§5) where CE is the VD3 extracted from MFGs (μg), and MF is the mass of milk fat (g) in MFGs suspension. The extraction procedure was conducted in triplicates using independent milk samples.

[2] = Loading of vitamin D3 in bovine milk fat globules; type: physicochemical; settings: for EE %, 1% v/v ethanol / EE %, 10% v/v ethanol / LY, 1% v/v ethanol / LY, 10% v/v ethanol: Bovine MFGs, 30 minutes
Experimental: as §1, §2
Incubation time was varied: 15, 30, 45, and 60 min. The effect of incubation time on the encapsulation of VD3 in bovine MFGs was assessed using a t-test with adjusted significance level using Bonferroni correction (p=0.008). These statistical analyses were carried out using Microsoft Excel 2010 (Microsoft Inc., Bellevue, WA, U.S.A.). All procedures were conducted with minimal exposure to light. The experiments were conducted in triplicates.
as §3, §4, §5

[3] = Encapsulation of hydrophobic compounds into milk fat globules (loading capacity, encapsulation efficiency); type: physicochemical, bovine; settings: 10% v/v ethanol, 30 min
Experimental: Raw milk was procured from a local market and stored at 4° C. Milk was used for up to 4 days post purchase. MFGs were separated from raw milk using centrifugal separation following a modified version of the method by Gallier et al. (2010) (12). First, raw milk was diluted with Milli-Q water at 9:1 water to milk, and the solution was centrifuged at 3,000×g for 5 min using a fixed angle centrifuge rotor. Cream was then skimmed off the sides of the centrifuged tubes after discarding the aqueous phase. In order to remove more of the milk serum components, cream was reconstituted in water to reach 4% w/v, and subjected to another step of centrifugation at 3,000×g for 5 min Cream was collected as detailed prior, then reconstituted to 20% w/v in Milli-Q water. All separation steps were completed at room temperature.
Encapsulation of test compounds in MFGs was accomplished by mixing ethanolic stock solution of a compound with 20% w/v cream suspended in water. The mixture was gently inverted several times to mix, then allowed in incubate in the dark.
To test the effect of incubation temperature on the partitioning and encapsulation yield and efficiency, RA was added at 250 μM concentration and was allowed to incubate with MFGs for 30 min at 4, 22, and 40° C.
To quantify the amount of compound encapsulated in MFGs, cream was separated from ethanol-containing aqueous phase via centrifugal separation at 3,000 x g for 5 min. Cream was skimmed and added to methanol at 50 mg/mL and vortexed vigorously for 1 min, then centrifuged at 16,000×g for 10 min. Top layer of methanol was collected and absorbance was measured at appropriate wavelength for each compound. An absorbance blank was prepared following the same encapsulation and separation steps in the absence of compound. λmax in methanol (nm) for each compound is reported in Table 1.
Cream (20% w/v in Milli-Q water) that was separated following the steps in Example 2 was further separated via centrifugation at 3,000×g for 5 min. Fat content in cream was measured using a modified Folch method (13). An additional washing step was incorporated where the chloroform/water interface was washed with 1:1 water/methanol solution.

Description for physchem: One such molecular property that is used to predict partitioning potential is the octanol—water partition coefficient; Log P, which is the logarithm of the ratio of the solute concentration in the octanol phase to the solute concentration in the water phase, at a defined temperature.

For `C=C1CC[C@H](O)C/C1=C/C=C1\CCC[C@]2(C)[C@@H]([C@H](C)CCCC(C)C)CC[C@@H]12` [Cholecalciferol], the “EE %, 1% v/v ethanol” value ([1]; 50 μM) was 11.75 ± 0.44%, the “EE %, 10% v/v ethanol” value ([1]; 50 μM) was 37.83 ± 10.36% and the “LY, 1% v/v ethanol” value ([1]; 50 μM) was 11.17 ± 0.41 μg of VD3 per gram of milk fat. For the same compound, the “LY, 10% v/v ethanol” value ([1]; 50 μM) was 35.95 ± 9.85 μg of VD3 per gram of milk fat, the “EE %, 1% v/v ethanol” value ([1]; 100 μM) was 10.70 ± 3.12% and the “EE %, 10% v/v ethanol” value ([1]; 100 μM) was 20.29 ± 4.85 %. The “LY, 1% v/v ethanol” value ([1]; 100 μM) was 20.35 ± 5.93 μg of VD3 per gram of milk fat, the “LY, 10% v/v ethanol” value ([1]; 100 μM) was 38.56 ± 9.23 μg of VD3 per gram of milk fat and the “EE %, 1% v/v ethanol” value ([1]; 150 μM) was 10.17 ± 0.67%. The “EE %, 10% v/v ethanol” value ([1]; 150 μM) was 18.95 ± 6.34 %, the “LY, 1% v/v ethanol” value ([1]; 150 μM) was 29.01 ± 1.92 μg of VD3 per gram of milk fat and the “LY, 10% v/v ethanol” value ([1]; 150 μM) was 54.03 ± 18.08 μg of VD3 per gram of milk fat. For the same compound, the “EE %, 1% v/v ethanol” value ([1]; 200 μM) was 8.49 ± 1.65%, the “EE %, 10% v/v ethanol” value ([1]; 200 μM) was 14.30 ± 3.90 % and the “LY, 1% v/v ethanol” value ([1]; 200 μM) was 32.28 ± 6.26 μg of VD3 per gram of milk fat. For the same compound, the “LY, 10% v/v ethanol” value ([1]; 200 μM) was 54.33 ± 14.83 μg of VD3 per gram of milk fat, the “EE %, 1% v/v ethanol” value ([1]; 250 μM) was 8.13 ± 1.27% and the “EE %, 10% v/v ethanol” value ([1]; 250 μM) was 10.31 ± 1.14 %. The “LY, 1% v/v ethanol” value ([1]; 250 μM) was 38.62 ± 6.06 μg of VD3 per gram of milk fat, the “LY, 10% v/v ethanol” value ([1]; 250 μM) was 49.00 ± 5.43 μg of VD3 per gram of milk fat and the “VD3 loaded into MFGs (up to)” value ([1]; ovine MFGs) was at most 54 μg/g milk fat. The “EE %, 1% v/v ethanol” value ([2]; 50 μM) was 20.81 ± 8.82%, the “EE %, 10% v/v ethanol” value ([2]; 50 μM) was 27.72 ± 7.94% and the “LY, 1% v/v ethanol” value ([2]; 50 μM) was 19.78 ± 8.38 μg of VD3 per gram of milk fat. For the same compound, the “LY, 10% v/v ethanol” value ([2]; 50 μM) was 26.34 ± 7.55 μg of VD3 per gram of milk fat, the “EE %, 1% v/v ethanol” value ([2]; 100 μM) was 18.45 ± 0.91% and the “EE %, 10% v/v ethanol” value ([2]; 100 μM) was 21.09 ± 1.10%. The “LY, 1% v/v ethanol” value ([2]; 100 μM) was 35.07 ± 1.73 μg of VD3 per gram of milk fat, the “LY, 10% v/v ethanol” value ([2]; 100 μM) was 40.09 ± 2.10 μg of VD3 per gram of milk fat and the “EE %, 1% v/v ethanol” value ([2]; 150 μM) was 15.43 ± 1.27%. The “EE %, 10% v/v ethanol” value ([2]; 150 μM) was 20.67 ± 1.97%, the “LY, 1% v/v ethanol” value ([2]; 150 μM) was 44.00 ± 3.63 μg of VD3 per gram of milk fat and the “LY, 10% v/v ethanol” value ([2]; 150 μM) was 58.93 ± 5.61^†¥ μg of VD3 per gram of milk fat. For the same compound, the “EE %, 1% v/v ethanol” value ([2]; 200 μM) was 12.31 ± 3.56%, the “EE %, 10% v/v ethanol” value ([2]; 200 μM) was 18.51 ± 1.52 % and the “LY, 1% v/v ethanol” value ([2]; 200 μM) was 46.78 ± 13.52 μg of VD3 per gram of milk fat. The “LY, 10% v/v ethanol” value ([2]; 200 μM) was 70.37 ± 5.79^†‡¥ μg of VD3 per gram of milk fat, the “EE %, 1% v/v ethanol” value ([2]; 250 μM) was 14.28 ± 1.89% and the “EE %, 10% v/v ethanol” value ([2]; 250 μM) was 16.85 ± 2.94 %. For the same compound, the “LY, 1% v/v ethanol” value ([2]; 250 μM) was 67.84 ± 9.00 μg of VD3 per gram of milk fat, the “LY, 10% v/v ethanol” value ([2]; 250 μM) was 80.07 ± 14.00 μg of VD3 per gram of milk fat and the “VD3 loaded into MFGs (up to)” value ([2]; bovine MFGs) was “Up to 80 μg/g milk fat”. For the same compound, the “reduction in the encapsulation yield with extended incubation” value ([2]; bovine MFGs, incubation up to 60 min vs 45 min, 10% v/v ethanol, 250 μM VD3) was “approx. 8%”, the logP (physchem) was about 7.5 and the “% Encapsulation efficiency” value ([3]; 50 μM added compound, room temperature) was 68.60 ± 6.30%. For the same compound, the “% Encapsulation efficiency” value ([3]; 100 μM added compound, room temperature) was 69.58 ± 6.44%, the “% Encapsulation efficiency” value ([3]; 150 μM added compound, room temperature) was 67.62 ± 3.67% and the “% Encapsulation efficiency” value ([3]; 200 μM added compound, room temperature) was 63.59 ± 1.43%. For the same compound, the “% Encapsulation efficiency” value ([3]; 250 μM added compound, room temperature) was 49.84 ± 3.74 %, the “% Encapsulation efficiency” value ([3]; 500 μM added compound, room temperature) was 45.25 ± 3.00 % and the “% Encapsulation efficiency” value ([3]; 1000 μM added compound, room temperature) was 24.77 ± 0.84 %. The “% Encapsulation efficiency” value ([3]; 1500 μM added compound, room temperature) was 28.92 ± 3.43 %, the “% Encapsulation efficiency” value ([3]; 2000 μM added compound, room temperature) was 19.66 ± 1.05 % and the “% Encapsulation efficiency” value ([3]; 2500 μM added compound, room temperature) was 19.22 ± 2.88 %. The “maximal loading capacity (LC)” value ([3]; maximal value over 50-2500 μM, room temperature) was 22.12 μg per gram of milk fat and the “encapsulation efficiency (EE %), maximal/overall value” ([3]; over tested concentrations) was 69%.
